For assay [1], the target named is T1, AaegOR6 (Aedes aegypti, UniProt A0A1S4G757).
T1 sequence (A0A1S4G757 1-398): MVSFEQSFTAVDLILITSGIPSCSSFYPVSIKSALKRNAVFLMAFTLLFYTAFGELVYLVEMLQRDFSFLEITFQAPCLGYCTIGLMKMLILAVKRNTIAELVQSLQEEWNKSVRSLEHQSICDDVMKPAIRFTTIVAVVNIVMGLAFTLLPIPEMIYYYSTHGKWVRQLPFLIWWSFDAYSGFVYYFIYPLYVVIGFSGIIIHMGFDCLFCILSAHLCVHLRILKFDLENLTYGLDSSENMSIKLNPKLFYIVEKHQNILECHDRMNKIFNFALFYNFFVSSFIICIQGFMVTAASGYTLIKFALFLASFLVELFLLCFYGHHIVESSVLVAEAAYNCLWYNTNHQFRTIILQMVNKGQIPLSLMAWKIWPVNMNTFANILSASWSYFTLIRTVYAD
T1 sequence (Q178U6 1-478 partner): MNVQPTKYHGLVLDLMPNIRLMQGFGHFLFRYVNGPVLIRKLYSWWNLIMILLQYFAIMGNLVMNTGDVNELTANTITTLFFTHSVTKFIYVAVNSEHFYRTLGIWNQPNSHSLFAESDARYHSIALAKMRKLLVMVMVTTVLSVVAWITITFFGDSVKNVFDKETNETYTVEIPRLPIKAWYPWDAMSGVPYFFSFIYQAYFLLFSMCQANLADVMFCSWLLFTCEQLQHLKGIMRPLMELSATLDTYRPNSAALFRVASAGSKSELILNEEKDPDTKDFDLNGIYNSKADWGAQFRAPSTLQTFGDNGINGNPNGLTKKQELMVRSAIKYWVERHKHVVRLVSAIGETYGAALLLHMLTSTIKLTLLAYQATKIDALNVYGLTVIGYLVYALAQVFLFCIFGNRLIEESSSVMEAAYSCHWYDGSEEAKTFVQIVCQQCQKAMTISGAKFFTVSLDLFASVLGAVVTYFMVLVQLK
As to the kind of experiment: Two-electrode voltage clamp of Xenopus laevis oocytes expressing AaegOR6/Orco (blends, unitary compounds, concentration-response). The class given is cell-based. Conditions: Indoles 2 unitary compounds. The source says:
(§1) The coding regions of ten AaegOR genes of interest (S3 File) and AaegOrco were synthesized by Twist Bioscience (San Francisco, CA, USA) and cloned into the pENTR plasmid. The Gateway LR directional cloning system (Invitrogen Corp., Carlsbad, CA, USA) was utilized to subclone AaegOR coding regions into the pSP64t-RFA oocyte expression plasmid. Plasmids were purified using the GeneJet Plasmid Miniprep Kit (ThermoFisher Scientific, Waltham, MA, USA). Purified plasmids were sequenced in both directions to confirm coding regions.
(§2) Chemical compounds (S6 File) used in the deorphanization of AaegORs were purchased from Acros Organics (Morris, NJ, USA), Alfa Aesar (Ward Hill, MA, USA), and ThermoFisher Scientific (Waltham, MA, USA) at the highest purity available. Compounds were stored as 1M stocks in 100% DMSO. Serial dilutions of each compound were prepared in 10% DMSO and blended by chemical class.
(§3) pSP64t-RFA: AaegOR clones were linearized using Xbal, and cRNAs were synthesized using the mMESSAGE mMACHINE ® SP6 kit (Life Technologies, Carlsbad, CA, USA). Xenopus laevis stage V-VII oocytes purchased from Xenopus1 (Dexter, MI, USA) were stored at 18°C in Incubation medium (ND96 96 with 5% dialyzed horse serum, 50μg/mL gentamycin, 100μg/mL streptomycin, 100μg/mL penicillin, and 550μg/mL sodium pyruvate). 30nL of cRNA was injected into multiple oocytes using a microinjection syringe pump (World Precision Instruments, Sarasota, FL, USA) maintained at 18°C for 48–72 hrs. Odorant blends were perfused across individual oocytes for 10–15 seconds, held at a resting membrane potential of -80 mV using an OC-725C oocyte clamp (Warner Instruments, LLC, Hamden, CT, USA). Induced currents were measured indirectly using the two-electrode voltage clamp technique (TEVC). Following each stimulus, currents were allowed to return to baseline before further stimulation. Data was captured using the Digidata 1550 B digitizer and PClamp10 software (Molecular Devices, San Jose, CA, USA). Concentration-response curves were generated by perfusing unitary odorants over oocytes at increasing concentrations from [10^-3M] to [10^-9M]. Data were analyzed using GraphPad Prism 8 (GraphPad Software Inc., La Jolla, CA, USA). At least two biological replicates were conducted at each concentration and for each compound. Data for at least seven oocytes responding to each compound was analyzed (S7 File).
On the technique in general: Two-electrode voltage clamp holds a large cell at a set potential and records current.

Assay [2] deals with T2, AaegOR71 (Aedes aegypti, UniProt A0A3S7SHD4).
T2 sequence (A0A3S7SHD4 1-415): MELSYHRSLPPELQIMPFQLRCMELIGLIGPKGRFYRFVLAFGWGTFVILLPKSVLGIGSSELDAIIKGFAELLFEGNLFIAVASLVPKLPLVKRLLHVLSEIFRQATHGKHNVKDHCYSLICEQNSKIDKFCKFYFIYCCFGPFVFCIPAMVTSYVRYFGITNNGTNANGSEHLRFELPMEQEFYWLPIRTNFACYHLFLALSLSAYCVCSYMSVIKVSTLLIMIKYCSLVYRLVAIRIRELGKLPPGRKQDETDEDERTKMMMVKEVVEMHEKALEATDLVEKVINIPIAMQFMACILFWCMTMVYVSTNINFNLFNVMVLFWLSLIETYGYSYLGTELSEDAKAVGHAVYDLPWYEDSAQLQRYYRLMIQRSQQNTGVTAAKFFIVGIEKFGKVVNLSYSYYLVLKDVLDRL
T2 sequence (Q178U6 1-478 partner): T1 sequence (Q178U6 1-478 partner)
As to the kind of experiment: Two-electrode voltage clamp of Xenopus laevis oocytes expressing AaegOR71/Orco (blends, unitary compounds, concentration-response). Conditions: Indoles 2 unitary compounds. The class given is cell-based.
From the text: as §1, §2, §3

Molecules are shown by their SMILES.

Consider `c1ccc2nccnc2c1` [Quinoxaline], for which, in assay [1], the “Raw data (Responses in nA) Oocyte 1” value is 0.0 nA, the “Raw data (Responses in nA) Oocyte 2” value amounted to 0.0 nA, the “Raw data (Responses in nA) Oocyte 3” value stood at 0.0 nA and the “Raw data (Responses in nA) Oocyte 4” value amounted to 0.0 nA. In assay [1], the “Raw data (Responses in nA) Oocyte 5” value is 0.0 nA, the “Raw data (Responses in nA) Oocyte 6” value is on record as 0.0 nA, the “Raw data (Responses in nA) Oocyte 7” value was 0.0 nA and the “Raw data (Responses in nA) Oocyte 8” value worked out at 0.0 nA. In addition, in assay [2], the “Raw Data (Response in nA) Oocyte 1” value came to 0 nA, the “Raw Data (Response in nA) Oocyte 2” value was 620 nA, the “Raw Data (Response in nA) Oocyte 3” value amounted to 85 nA and the “Raw Data (Response in nA) Oocyte 4” value is 370 nA. Moreover, in assay [2], the “Raw Data (Response in nA) Oocyte 5” value is 60 nA, the “Raw Data (Response in nA) Oocyte 6” value worked out at 200 nA, the “Raw Data (Response in nA) Oocyte 7” value was determined as 80 nA and the “Raw Data (Response in nA) Oocyte 8” value is 70 nA.

As for `OCc1c[nH]c2ccccc12` [3-Indolemethanol], in assay [1], the “Raw data (Responses in nA) Oocyte 1” value stood at 0.0 nA, the “Raw data (Responses in nA) Oocyte 2” value was determined as 0.0 nA, the “Raw data (Responses in nA) Oocyte 3” value stood at 10.0 nA and the “Raw data (Responses in nA) Oocyte 4” value turned out to be 0.0 nA. For the same compound, in assay [1], the “Raw data (Responses in nA) Oocyte 5” value stood at 0.0 nA, the “Raw data (Responses in nA) Oocyte 6” value came out at 0.0 nA, the “Raw data (Responses in nA) Oocyte 7” value was 0.0 nA and the “Raw data (Responses in nA) Oocyte 8” value turned out to be 0.0 nA. In assay [2], the “Raw Data (Response in nA) Oocyte 1” value is 240 nA, the “Raw Data (Response in nA) Oocyte 2” value came out at 0 nA, the “Raw Data (Response in nA) Oocyte 3” value is 0 nA and the “Raw Data (Response in nA) Oocyte 4” value is 0 nA. Further, in assay [2], the “Raw Data (Response in nA) Oocyte 5” value was 0 nA, the “Raw Data (Response in nA) Oocyte 6” value came to 0 nA, the “Raw Data (Response in nA) Oocyte 7” value worked out at 0 nA and the “Raw Data (Response in nA) Oocyte 8” value came to 0 nA.

Consider `O=C1Cc2ccccc2N1` [Oxindole], for which, in assay [1], the “Raw data (Responses in nA) Oocyte 1” value is 0.0 nA, the “Raw data (Responses in nA) Oocyte 2” value amounted to 0.0 nA, the “Raw data (Responses in nA) Oocyte 3” value was 0.0 nA and the “Raw data (Responses in nA) Oocyte 4” value worked out at 0.0 nA. Besides, in assay [1], the “Raw data (Responses in nA) Oocyte 5” value is 0.0 nA, the “Raw data (Responses in nA) Oocyte 6” value turned out to be 0.0 nA, the “Raw data (Responses in nA) Oocyte 7” value was 0.0 nA and the “Raw data (Responses in nA) Oocyte 8” value is 10.0 nA. In assay [2], the “Raw Data (Response in nA) Oocyte 1” value is reported as 0 nA, the “Raw Data (Response in nA) Oocyte 2” value is recorded as 20 nA, the “Raw Data (Response in nA) Oocyte 3” value was found to be 0 nA and the “Raw Data (Response in nA) Oocyte 4” value is 10 nA. In addition, in assay [2], the “Raw Data (Response in nA) Oocyte 5” value is given as 0 nA, the “Raw Data (Response in nA) Oocyte 6” value was 10 nA, the “Raw Data (Response in nA) Oocyte 7” value was determined as 5 nA and the “Raw Data (Response in nA) Oocyte 8” value was 20 nA.

Take `Nc1cccc2cnccc12` [5-Aminoisoquinoline]: in assay [1], the “Raw data (Responses in nA) Oocyte 1” value is reported as 0.0 nA, the “Raw data (Responses in nA) Oocyte 2” value is listed as 0.0 nA, the “Raw data (Responses in nA) Oocyte 3” value was determined as 0.0 nA and the “Raw data (Responses in nA) Oocyte 4” value is given as 0.0 nA. Moreover, in assay [1], the “Raw data (Responses in nA) Oocyte 5” value stood at 0.0 nA, the “Raw data (Responses in nA) Oocyte 6” value is reported as 0.0 nA, the “Raw data (Responses in nA) Oocyte 7” value is on record as 0.0 nA and the “Raw data (Responses in nA) Oocyte 8” value is 0.0 nA. Moreover, in assay [2], the “Raw Data (Response in nA) Oocyte 1” value was 130 nA, the “Raw Data (Response in nA) Oocyte 2” value stood at 200 nA, the “Raw Data (Response in nA) Oocyte 3” value amounted to 40 nA and the “Raw Data (Response in nA) Oocyte 4” value stood at 40 nA. In assay [2], the “Raw Data (Response in nA) Oocyte 5” value came to 0 nA, the “Raw Data (Response in nA) Oocyte 6” value stood at 10 nA, the “Raw Data (Response in nA) Oocyte 7” value is 0 nA and the “Raw Data (Response in nA) Oocyte 8” value was 10 nA.

The values are drawn from PMC11073699, “Odorant receptors for floral- and plant-derived volatiles in the yellow fever mosquito, Aedes aegypti (Diptera: Culicidae)” (PLOS ONE, 2024).
